This note sets out measurements from patent publication US8674113B2, “Compounds” (Boehringer Ingelheim International GmbH, priority 2010, dated 2014).

Broadly, the IC50 is the concentration that inhibits the measured activity by half.

The structures appear in SMILES notation.

The target of assay [1] is recombinant human mPGES-1 (Homo sapiens (Human), UniProt O14684). Put plainly: mPGES-1 enzyme assay (HTRF detection of PGE2). The format is biochemical. To be noted: recombinant human mPGES-1 microsomes, PGH2 2 μM, 60 seconds; read-out: mPGES-1 inhibitory effect IC50 in the enzyme assay. An outline of the steps: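 Microsomes from E. coli expressing recombinant human mPGES-1 (~0.5 μg protein/well) in 0.1 M phosphate pH 7.4 with 2.5 mM GSH, pre-incubated with compound 25 min at room temperature. PGH2 (2 μM final) added, reaction stopped with FeCl2 after 60 s; PGE2 quantified by HTRF (665/620 ratio) against a calibration curve, IC50 by nonlinear regression after background subtraction.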
For orientation: In TR-FRET formats the signal depends on donor and acceptor labels being close together.

A further assay addresses mPGES-1 in A549 cells (Homo sapiens (Human), UniProt O14684). Put plainly: A549 cell-based assay (PGE2 formation, 50% human serum). To be noted: IL-1β 5 ng/ml, 10 nM arachidonic acid, 20-24 h, read-out: mPGES-1 inhibitory effect IC50 in the cell assay. Summed up: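 A549 cells in F-12K with 50% human serum were stimulated 20-24 h with 5 ng/ml IL-1β and 10 nM arachidonic acid in presence of compound or vehicle. PGE2 in the cell-free medium was measured by HTRF, normalised to vehicle (100%). IC50 from 6-8 point titrations.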

Chain of mPGES-1 in A549 cells (O14684 whole entry): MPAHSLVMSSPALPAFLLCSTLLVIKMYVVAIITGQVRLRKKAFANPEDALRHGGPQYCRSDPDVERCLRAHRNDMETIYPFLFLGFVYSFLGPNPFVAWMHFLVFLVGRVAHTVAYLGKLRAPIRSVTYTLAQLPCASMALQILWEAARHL
Chain of recombinant human mPGES-1 (O14684 whole entry): as above

For `Cn1c(Nc2c(Cl)ccc(CNC(=O)C(C)(C)C)c2Cl)nc2cc(C(=O)N[C@H]3CC[C@H](C(F)(F)F)CC3)c(N3CCC4(CC4)C3)cc21` [Example 121], the IC50 in assay [1] is 3 nM; on mPGES-1 in A549 cells, 2 nM.

As for `Cn1c(Nc2c(Cl)ccc(CNC(=O)C(C)(C)C)c2Cl)nc2cc(C(=O)N[C@H]3CC[C@H](C(F)(F)F)CC3)c(N3CC4CCC4C3)cc21` (stereo partly drawn) [Example 122], the IC50 was 3 nM in assay [1] and 1 nM on mPGES-1 in A549 cells.

On to `Cn1c(Nc2c(Cl)ccc(CNC(=O)C(C)(C)C)c2Cl)nc2cc(C(=O)N[C@H]3CC[C@H](C(F)(F)F)CC3)c(N3C[C@H]4C[C@@H](C3)[C@H]4O)cc21` [Example 126], for which the results for the concentration for half-maximal inhibition (IC50) (in assay [1]; at mPGES-1 in A549 cells) were 2 nM and 1 nM, respectively.

With `Cn1c(Nc2c(Cl)ccc(CNC(=O)C(C)(C)C(F)(F)F)c2Cl)nc2cc(C(=O)N[C@H]3CC[C@H](C(F)(F)F)CC3)c(N3CC[C@@H](F)C3)cc21` [Example 128], the IC50 is 2 nM in assay [1] and 1 nM on mPGES-1 in A549 cells.

Consider `Cn1c(Nc2c(Cl)ccc(CNC(=O)C(C)(C)C)c2Cl)nc2cc(C(=O)N[C@H]3CC[C@H](C(F)(F)F)CC3)c(N3C[C@@H]4C[C@H]3CO4)cc21` [Example 129], for which the IC50 in assay [1] turned out to be 3 nM; on mPGES-1 in A549 cells it was 5 nM.

As for `Cn1c(Nc2c(Cl)ccc(CNC(=O)C(C)(C)C)c2Cl)nc2cc(C(=O)N[C@H]3CC[C@H](C(F)(F)F)CC3)c(N3CCS(=O)(=O)CC3)cc21` [Example 130], the IC50 in assay [1] worked out at 2 nM; on mPGES-1 in A549 cells, 7 nM.

For the compound `Cn1c(Nc2c(Cl)ccc(CNC(=O)C(C)(C)C)c2Cl)nc2cc(C(=O)N[C@H]3CC[C@H](C(F)(F)F)CC3)c(N3CCNC(C(F)(F)F)C3)cc21` (stereo partly drawn) [Example 131], the 50% inhibitory concentration (IC50) in assay [1] worked out at 2 nM; at mPGES-1 in A549 cells, 1 nM.

Regarding `Cn1c(Nc2c(Cl)ccc(CNC(=O)C(C)(C)C)c2Cl)nc2cc(C(=O)N[C@H]3CC[C@H](C(F)(F)F)CC3)c(N3CCN(CC(F)(F)F)CC3)cc21` [Example 132], the IC50 in assay [1] is 5 nM; at mPGES-1 in A549 cells, 1.5 nM.

As for `Cn1c(Nc2c(Cl)ccc(CNC(=O)C(C)(C)C)c2Cl)nc2cc(C(=O)N[C@H]3CC[C@H](C(F)(F)F)CC3)c(N3CCn4ncnc4C3)cc21` [Example 133], the IC50 in assay [1] was determined as 3 nM; at mPGES-1 in A549 cells, 10 nM.

Regarding `Cn1c(Nc2c(Cl)ccc(CNC(=O)C(C)(C)C)c2Cl)nc2cc(C(=O)N[C@H]3CC[C@H](C(F)(F)F)CC3)c(N3CC4CCC(C3)O4)cc21` [Example 134], the results for the IC50 (in assay [1]; at mPGES-1 in A549 cells) were 2 nM and below 1 nM, respectively.

As for `Cn1c(Nc2c(Cl)ccc(CNC(=O)C(C)(C)C)c2Cl)nc2cc(C(=O)NCCC(F)(F)F)c(N3CC4CC4C3)cc21` (stereo not drawn) [Example 135], the IC50 in assay [1] stood at 3 nM; at mPGES-1 in A549 cells, 5 nM.

Take `Cn1c(Nc2c(Cl)ccc(CNC(=O)C(C)(C)C)c2Cl)nc2cc(C(=O)Nc3ccc(OC(F)(F)F)cc3)c(N3CCCC(C(F)(F)F)C3)cc21` (stereo not drawn) [Example 136]: the half-inhibitory concentration (IC50) in assay [1] came to 3 nM; on mPGES-1 in A549 cells, 1 nM.

For `CN(CC(F)F)c1cc2c(cc1C(=O)Nc1ccc(OC(F)(F)F)cc1)nc(Nc1c(Cl)ccc(CNC(=O)C(C)(C)C)c1Cl)n2C` [Example 137], the IC50 in assay [1] is 3 nM; at mPGES-1 in A549 cells, below 1 nM.

For the compound `Cn1c(Nc2c(Cl)ccc(CNC(=O)C(C)(C)C)c2F)nc2cc(C(=O)Nc3ccc(OC(F)(F)F)cc3)c(N3CC[C@@H](F)C3)cc21` [Example 138], the IC50 in assay [1] is 2 nM; on mPGES-1 in A549 cells it was 3 nM.

For `Cn1c(Nc2c(Cl)ccc(CNC(=O)C(C)(C)C)c2Cl)nc2cc(C(=O)Nc3ccc(OC(F)(F)F)cc3)c(N3CC[C@H](F)C3)cc21` [Example 139], the IC50 is 3 nM in assay [1] and below 1 nM on mPGES-1 in A549 cells.

On to `Cn1c(Nc2c(Cl)ccc(CNC(=O)C(C)(C)F)c2Cl)nc2cc(C(=O)Nc3ccc(OC(F)(F)F)cc3)c(N3CCC(F)(F)CC3)cc21` [Example 140], for which the IC50 in assay [1] turned out to be 2 nM; on mPGES-1 in A549 cells it was 5 nM.

As for `Cn1c(Nc2c(Cl)ccc(CNC(=O)C(C)(C)C)c2Cl)nc2cc(C(=O)Nc3ccc(OC(F)(F)F)cc3)c(N3CCOCC3)cc21` [Example 141], the IC50 in assay [1] was 2 nM; at mPGES-1 in A549 cells, 1 nM.

Consider `Cc1c(N2CC3CC3C2)c(C(=O)N[C@H]2CC[C@H](C(F)(F)F)CC2)cc2nc(Nc3c(Cl)ccc(CNC(=O)C(C)(C)C)c3Cl)n(C)c12` (stereo partly drawn) [Example 144, N-(trans-4-Trifluoromethyl-cyclohexyl)-2-{2,6-dichloro-3-[(2,2-dimethyl-propionylamino)-methyl]-phenylamino}-6-[3-aza-bicyclo[3.1.0]hex-3-yl]-1,7-dimethyl-1H-benzimidazole-5-carboxylic acid amide], for which the IC50 in assay [1] stood at 5 nM; on mPGES-1 in A549 cells, 1 nM.

On to `Cn1c(Nc2c(Cl)ccc(CNC(=O)C(C)(C)C)c2Cl)nc2cc(C(=O)N[C@H]3CC[C@H](C(F)(F)F)CC3)c(N3CC[C@@H](F)C3)c(F)c21` [Example 145, (R)—N-(trans-4-Trifluoromethyl-cyclohexyl)-2-{2,6-dichloro-3-[(2,2-dimethyl-propionylamino)-methyl]-phenylamino}-6-[3-fluoro-pyrrolidinyl]-1-methyl-7-fluoro-1H-benzimidazole-5-carboxylic acid amide], for which the IC50 in assay [1] came out at 3 nM; at mPGES-1 in A549 cells, 2.5 nM.

`Cn1c(Nc2c(Cl)ccc(CNC(=O)C(C)(C)F)c2Cl)nc2cc(C(=O)NCCC(F)(F)F)c(N3CCC(O)CC3)cc21` [Example 148]: the figures for the IC50 (in assay [1]; on mPGES-1 in A549 cells) were 3 nM and 20 nM, respectively.

Turning to `CN(c1cc2c(cc1C(=O)NCCC(F)(F)F)nc(Nc1c(Cl)ccc(CNC(=O)C(C)(C)F)c1Cl)n2C)C1CCC1` [Example 149], the IC50 (in assay [1]; at mPGES-1 in A549 cells) was 3 nM throughout.

Take `Cn1c(Nc2c(Cl)ccc(CNC(=O)C(C)(C)F)c2Cl)nc2cc(C(=O)NCCC(F)(F)F)c(N3CCCC(C(F)(F)F)C3)cc21` (stereo not drawn) [Example 150]: the IC50 (in assay [1]; at mPGES-1 in A549 cells) was 2 nM each time.

As to `Cn1c(Nc2c(Cl)ccc(CNC(=O)C(C)(C)F)c2Cl)nc2cc(C(=O)Nc3ccc(F)c(Cl)c3)c(N3CCC(F)(F)C3)cc21` [Example 154], the IC50 in assay [1] is 2 nM; at mPGES-1 in A549 cells, below 1 nM.

Turning to `Cn1c(Nc2c(Cl)ccc(CNC(=O)C3(C)CC3)c2Cl)nc2cc(C(=O)Nc3ccc(OC(F)(F)F)cc3)c(N3CC[C@@H](F)C3)cc21` [Example 156], the IC50 (in assay [1]; at mPGES-1 in A549 cells) was 2 nM each time.

On to `Cc1nc(C(F)(F)F)c(CNC(=O)c2cc3nc(Nc4c(Cl)ccc(CNC(=O)C(C)(C)C)c4Cl)n(C)c3cc2N2CCC(C(F)(F)F)CC2)s1` [Example 158], for which the IC50 (in assay [1]; at mPGES-1 in A549 cells) was 4 nM in each case.

Take `Cn1c(Nc2c(Cl)ccc(CNC(=O)C(C)(C)C)c2Cl)nc2cc(C(=O)Nc3cc(C(C)(C)C)on3)c(N3CCC(C(F)(F)F)CC3)cc21` [Example 159]: the results for the IC50 (in assay [1]; at mPGES-1 in A549 cells) were 3 nM and 4 nM, respectively.

On to `Cn1c(Nc2c(Cl)ccc(CNC(=O)C(C)(C)C)c2Cl)nc2cc(C(=O)Nc3cc(C(C)(C)CO)no3)c(N3CCC(C(F)(F)F)CC3)cc21` [Example 160], for which the results for the IC50 (in assay [1]; on mPGES-1 in A549 cells) were 4 nM and 3 nM, respectively.

On to `Cn1c(Nc2c(Cl)ccc(CNC(=O)C(C)(C)C)c2Cl)nc2cc(C(=O)Nc3nc(C(F)(F)F)cs3)c(N3CCC(C(F)(F)F)CC3)cc21` [Example 161], for which the IC50 (in assay [1]; on mPGES-1 in A549 cells) was 3 nM throughout.

`Cn1c(Nc2c(Cl)ccc(CNC(=O)C(C)(C)C)c2Cl)nc2cc(C(=O)Nc3nnc(C(C)(C)C)s3)c(N3CCC(C(F)(F)F)CC3)cc21` [Example 162]: the IC50 was found to be 3 nM in assay [1] and 2 nM on mPGES-1 in A549 cells.

Take `CC(C)(C)C(=O)NCc1ccc(Cl)c(Nc2nc3cc(C(=O)N[C@H]4CC[C@H](C(F)(F)F)CC4)c(N4CC5CC5C4)cc3n2C2(C(C)(C)O)CC2)c1Cl` (stereo partly drawn) [Example 164]: the IC50 in assay [1] came out at 4 nM; at mPGES-1 in A549 cells, 7 nM.

Turning to `CC(C)(O)Cn1c(Nc2c(Cl)ccc(CNC(=O)C(C)(C)C)c2Cl)nc2cc(C(=O)N[C@H]3CC[C@H](C(F)(F)F)CC3)c(N3CCC(C(F)(F)F)CC3)cc21` [Example 165], the IC50 in assay [1] stood at 2 nM; on mPGES-1 in A549 cells, 3 nM.

Consider `CC(C)(O)Cn1c(Nc2c(Cl)ccc(CNC(=O)C(C)(C)C)c2Cl)nc2cc(C(=O)Nc3ccc(OC(F)(F)F)cc3)c(N3CCOCC3)cc21` [Example 166, N-(4-Trifluoromethoxy-phenyl)-2-{2,6-dichloro-3-[(2,2-dimethyl-propionylamino)-methyl]-phenylamino}-6-[morpholinyl]-1-(2-hydroxy-2-methyl-propyl)-1H-benzimidazole-5-carboxylic acid amide], for which the IC50 is 2 nM in assay [1] and 12 nM on mPGES-1 in A549 cells.

Turning to `Cn1c(Nc2c(Cl)ccc(CNC(=O)c3ccc(O)cc3F)c2Cl)nc2cc(C(=O)NCCC(F)(F)F)c(N3CCC(C(F)(F)F)CC3)cc21` [Example 173], the IC50 (in assay [1]; at mPGES-1 in A549 cells) was 2 nM throughout.

As to `Cn1c(Nc2c(Cl)ccc(CNC(=O)C(C)(C)CO)c2Cl)nc2cc(C(=O)NCCC(F)(F)F)c(N3CCC(C(F)(F)F)CC3)cc21` [Example 175], the IC50 in assay [1] was 4 nM; at mPGES-1 in A549 cells, 7 nM.

On to `Cn1c(Nc2c(Cl)ccc(CNC(=O)c3c(N)cccc3Cl)c2Cl)nc2cc(C(=O)NCCC(F)(F)F)c(N3CCC(C(F)(F)F)CC3)cc21` [Example 176], for which the IC50 was determined as 4 nM in assay [1] and 34 nM on mPGES-1 in A549 cells.

Turning to `Cn1c(Nc2c(Cl)ccc(CNC(=O)c3ccc(N)cc3Cl)c2Cl)nc2cc(C(=O)NCCC(F)(F)F)c(N3CCC(C(F)(F)F)CC3)cc21` [Example 177], the IC50 in assay [1] worked out at 2 nM; at mPGES-1 in A549 cells it was 3 nM.
